Assay results as given in patent publication US10294230B2, “3,3-difluoropiperidine carbamate heterocyclic compounds as NR2B NMDA receptor antagonists” (Rugen Holdings (Cayman) Limited, priority 2015, dated 2019).

How the values were obtained:
NR2B = NR2B (Homo sapiens (Human), UniProt Q05586+Q13224); conditions: cited from earlier work
[1] = system: immobility in forced swim test; experiment: Forced Swim Test (FST) in mice; assay type: in vivo
Source text: (§1) The forced swim test (FST) also known at the behavioural despair test was used to evaluate antidepressant activity (Porsolt et al., 1977 Arch. Int. Pharmacodyn. 229: 327-336, Porsolt et al., 1977, Eur. J. Pharmacol. 47:379-391). Mice or rats that are forced to swim in a situation from which they cannot escape, rapidly become immobile. Drugs with antidepressant activity, such as imipramine, reduce the amount of time spent in the immobile state. Therefore, the amount of immobility time during a test conducted after drug administration represents a useful indicator of antidepressant activity (Lucki et al 2001 Psychopharmacology 155:315-322; Porsolt et al., 1977, Nature 266:730-732).
(§2) Test compound E1-8.2 was administered as the free base.
Mice were evaluated in a single swimming test session of 6 minutes. Mice were placed in a transparent plastic cylinder 24 cm high with a diameter of 13 cm containing 10 cm of water with ambient temperature control generally from 22±2° C. Mice were placed in the water for 6 minutes and the duration of immobility during the last 4 minutes was measured.
Animals were observed by a blinded observer. The observer judged the animal to be immobile when it ceased all activity (struggling, swimming, jumping etc.) and floated passively atop the water. The amount of time each animal spent in the immobile state (and the latency to the first bout of immobility) was recorded and used for statistical analysis of compound effect. Group differences were evaluated by student's t-test (reference substance) or one-way ANOVA followed by post-hoc Dunnett's test (test substances). […]
Male mice (strain NLMN) weighing 25-35 g were used for testing. […] The mice were videotaped for 6 minutes, and the last 4 minutes of video were analyzed by a blinded observer off-line. […] The amount of time each animal spent in the immobile state was recorded and used for statistical analysis of compound effect. Group differences were evaluated by student's t-test or one-way ANOVA followed by post-hoc Dunnett's test. […]

[2] = system: immobility in forced swim test; experiment: Forced Swim Test (FST) in rats; assay type: in vivo
Source text: as §1, §2
Male Wistar rats weighing 197-251 g were used for the rat test. Rats were evaluated according to a two-session procedure with a swimming session of 15 minutes on the first day of the experiment (Session 1) followed 24 hours later by a 5-minute swimming test (Session 2). […] Rats were placed in the water 24 h later for 5 minutes (Session 2) and the duration of immobility was measured.
Animals were observed by a blinded observer. […] The amount of time each animal spent in the immobile state (and the latency to the first bout of immobility) was recorded and used for statistical analysis of compound effect. […]

Sequence of NR2B (Q13224 27-1484, species assumed, other chains not shown): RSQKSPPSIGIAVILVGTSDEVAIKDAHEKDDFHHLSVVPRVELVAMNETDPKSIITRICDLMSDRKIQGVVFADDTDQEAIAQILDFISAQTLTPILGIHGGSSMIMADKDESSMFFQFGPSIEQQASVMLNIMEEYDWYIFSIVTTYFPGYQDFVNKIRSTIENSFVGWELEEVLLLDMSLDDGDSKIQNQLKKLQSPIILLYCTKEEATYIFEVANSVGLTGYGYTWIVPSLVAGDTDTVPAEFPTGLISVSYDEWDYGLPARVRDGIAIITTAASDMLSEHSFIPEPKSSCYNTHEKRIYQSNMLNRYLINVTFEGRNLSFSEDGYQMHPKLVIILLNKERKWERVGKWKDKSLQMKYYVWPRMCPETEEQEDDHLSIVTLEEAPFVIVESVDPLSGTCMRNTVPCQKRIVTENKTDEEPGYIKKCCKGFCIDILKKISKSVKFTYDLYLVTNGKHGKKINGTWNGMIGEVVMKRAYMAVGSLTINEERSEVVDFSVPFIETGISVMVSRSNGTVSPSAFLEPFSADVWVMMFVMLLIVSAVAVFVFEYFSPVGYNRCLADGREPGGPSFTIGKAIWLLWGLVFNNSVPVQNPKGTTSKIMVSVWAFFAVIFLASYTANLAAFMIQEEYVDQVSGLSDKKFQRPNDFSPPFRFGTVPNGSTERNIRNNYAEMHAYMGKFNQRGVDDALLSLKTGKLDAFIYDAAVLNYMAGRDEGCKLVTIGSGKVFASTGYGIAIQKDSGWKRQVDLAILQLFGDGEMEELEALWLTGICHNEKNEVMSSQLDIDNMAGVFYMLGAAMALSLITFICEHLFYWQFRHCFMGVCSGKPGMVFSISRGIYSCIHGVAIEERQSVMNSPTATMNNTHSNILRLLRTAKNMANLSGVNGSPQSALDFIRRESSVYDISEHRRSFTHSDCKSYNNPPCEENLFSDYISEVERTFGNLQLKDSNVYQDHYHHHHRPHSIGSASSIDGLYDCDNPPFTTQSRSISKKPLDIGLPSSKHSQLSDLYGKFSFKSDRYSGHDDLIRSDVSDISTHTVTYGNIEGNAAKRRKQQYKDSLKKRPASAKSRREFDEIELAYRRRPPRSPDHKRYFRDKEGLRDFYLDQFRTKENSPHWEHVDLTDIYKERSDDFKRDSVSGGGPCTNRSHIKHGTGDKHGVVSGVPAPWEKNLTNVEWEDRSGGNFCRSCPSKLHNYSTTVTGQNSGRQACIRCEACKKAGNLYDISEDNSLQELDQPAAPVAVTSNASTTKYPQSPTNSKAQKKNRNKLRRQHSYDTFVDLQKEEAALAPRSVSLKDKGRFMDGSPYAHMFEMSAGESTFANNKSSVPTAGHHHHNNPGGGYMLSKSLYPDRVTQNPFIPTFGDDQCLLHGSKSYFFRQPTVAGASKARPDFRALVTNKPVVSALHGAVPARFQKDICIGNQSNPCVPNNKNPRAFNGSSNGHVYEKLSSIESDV

Structure (SMILES) | potency against NR2B (NR2B) [nM] | immobility time, antidepressant activity ([1]; 32 mpk i.p. once 30 min before the test) | immobility time, antidepressant activity ([1]; 64 mpk p.o. once 60 min before the test) | immobility time, antidepressant activity ([1]; 128 mpk p.o. once 60 minutes before the test on Day 7) | immobility time, antidepressant activity ([2]; 32 mpk i.p. 3 times: 24 h, 4 h and 30 min before Session 2) | immobility time, antidepressant activity ([2]; 64 mpk p.o. 3 times: 24 h, 4 h and 60 min before Session 2)
Cc1ccc(COC(=O)N2CCC(CNc3ncccn3)C(F)C2)cc1 (single isomer, unassigned) [3R,4S enantiomer] | 25.5 |  |  |  |  | 
CN(C)CCCN1c2ccccc2CCc2ccccc21 [imipramine] |  | expected antidepressant activity | expected antidepressant activity | expected antidepressant activity | expected antidepressant activity | expected antidepressant activity
